Assay in all cases: NCI tumour cell line growth inhibition, 48 h
Test [1] has as its system HCC-2998 colon.
Test [2] concerns HS 578T breast.
Test [3] has as its system IGROV1 ovarian.
The test system of test [4] is KM12 colon.
Test [5] has as its system OVCAR-4 ovarian.
Test [6] has as its system OVCAR-8 ovarian.
Test [7] deals with SF-539 CNS.
For test [8], the system named is SR leukemia.
In test [9] the test system is UACC-257 melanoma.
Test [10] deals with UACC-62 melanoma.

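Protocol summary: plate cells (96-well), add compound at 5 concentrations, incubate 48 h, interpolate endpoints linearly. Here, GI50 denotes the concentration required for 50% inhibition of growth. Definition used: TGI = concentration required for complete inhibition of growth.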

On to `C[C@]12CCC(=O)C[C@@H]1CC[C@@H]1[C@@H]2CC[C@]2(C)[C@@H](OC(=O)N(CCCl)N=O)CC[C@@H]12`, for which the GI50 was 0.933 µM in test [1]; 2.13 µM in test [2]; 1.47 µM in test [3]; 1.49 µM in test [4]; 11.5 µM in [5]; 1.36 µM in test [6]. Besides, the results for the GI50 in test [7], in test [9] and in test [10] were 0.069 µM, 1.14 µM and 0.377 µM, respectively. The TGI came out at 7.95 µM in test [1]; 16.9 µM in test [2]; 12.8 µM in test [3]; 6.41 µM in test [4]; 29.7 µM in [5]; 24 µM in [6]. Besides, the TGI in test [7] was 4.67 µM; in test [8], > 37.7 µM; in test [9] it was 8.58 µM; in test [10] it was 11.7 µM.

As to `CC(=O)c1c(C)c2cnc(Nc3ccc(N4CCNCC4)cn3)nc2n(C2CCCC2)c1=O`, the GI50 in test [1] was 10.6 µM; in [2] it was 14.9 µM; in [3], 7.35 µM; in test [4], 0.623 µM; in test [5], 11.2 µM; in [6], 12.9 µM. Also, the GI50 in test [7] is 14.1 µM; in [8], 1.88 µM; in [9], 5.51 µM; in [10], 11 µM. For the same compound, the TGI was 23.9 µM in test [1]; 42.2 µM in test [2]; 25 µM in test [3]; 13.9 µM in test [4]; 23.8 µM in [5]; 28.7 µM in test [6]. Besides, the TGI in [7] worked out at 28.3 µM; in [8], 20.7 µM; in test [9], 20.9 µM; in test [10], 23.9 µM.

For `CCN1C(=O)N(CC)C2C1N=C(SC)N2/N=C/C=C/c1ccccc1OC` (centres undefined), the GI50 in test [1] was 0.413 µM; in test [2], 0.422 µM; in test [3] it was 0.618 µM; in test [4] it was 0.404 µM; in test [5], 1.55 µM; in test [6] it was 0.438 µM. Besides, the GI50 in test [7] is 0.315 µM; in test [8], 0.358 µM; in test [9], > 32.9 µM; in [10], 0.492 µM. Also, the TGI in test [1] is > 41.1 µM; in test [2], > 56.4 µM; in test [3], > 45.1 µM; in test [4] it was > 39.6 µM; in test [5], > 81.5 µM; in [6], > 45 µM. Further, the TGI was 1.69 µM in [7], 13.2 µM in [8], > 58 µM in test [9] and > 40.4 µM in test [10].

Turning to `COC(=O)CC1=C(C)/C(=C/c2[nH]c(-c3ccc[nH]3)cc2OC)N=C1C`, the GI50 in [1] is 0.207 µM; in test [2], 0.423 µM; in test [3], 0.34 µM; in [4], 0.118 µM; in [5], 0.147 µM; in test [6], 0.236 µM. In addition, the GI50 in test [7] is 0.331 µM; in test [8], 0.133 µM; in test [9], 0.282 µM; in test [10] it was 0.216 µM. In addition, the TGI in test [1] stood at 6.07 µM; in test [2], 2.14 µM; in test [3], 6.69 µM; in test [4], 2.12 µM; in [5] it was 4.03 µM; in test [6], 1.02 µM. The TGI in test [7] stood at 2.27 µM; in test [8], 0.677 µM; in [9], 1.12 µM; in [10] it was 0.56 µM.

On to `Cc1ccc(-c2nc3sc(C)cn3c2/C=C2\C(=O)Nc3ccc(Cl)cc32)cc1`, for which the GI50 in test [1] was 15.1 µM; in [2] it was 8.02 µM; in test [3], 12.6 µM; in [4], 20.6 µM; in test [5], 14.5 µM; in [6], 15.2 µM. Moreover, the GI50 in [7] is 4.51 µM; in [8], 10.8 µM; in test [9] it was 16.6 µM; in test [10], 13.3 µM. Further, the TGI in test [1] was determined as 31.1 µM; in test [2] it was 73.7 µM; in test [3], 27.6 µM; in test [4] it was 48.5 µM; in [5] it was 29.9 µM; in [6], 33.5 µM. Also, the TGI in test [7] was 17.3 µM; in [8], 36.7 µM; in [9] it was 44.9 µM; in test [10], 27.7 µM.

In the case of `CSc1nc2c(c(=O)n1C)C(c1ccccc1)C1=C(N2)/C(=C/c2ccccc2)CCC1` (centres undefined), the GI50 was > 100 µM in test [1]; 10.2 µM in test [2]; 13.6 µM in test [3]; 18.2 µM in test [4]; 30.8 µM in [5]; 3.97 µM in [6]. In addition, the GI50 in [7] is 9.98 µM; in test [8] it was 1.89 µM; in test [9], 6.63 µM; in test [10], 7.95 µM. Also, the TGI in [1] is > 100 µM; in [2], 93.8 µM; in test [3], > 100 µM; in test [4], > 100 µM; in [5], > 100 µM; in test [6], > 100 µM. Also, the TGI in test [7] is 81.5 µM; in test [8] it was > 100 µM; in [9] it was > 100 µM; in test [10], > 100 µM.

On to `COc1ccc(-c2c(-c3ccc(C#N)c(F)c3)nc(N3CCC(N)CC3)n(C)c2=O)cc1F`, for which the GI50 in [1] is 13 µM; in test [2] it was 13.2 µM; in test [3] it was 16.3 µM; in [4] it was 20 µM; in test [5], 29.3 µM; in test [6], 33.6 µM. In addition, the GI50 in test [7] was 13.8 µM; in test [8], 12.2 µM; in test [9], 13.6 µM; in [10], 16.1 µM. Also, the TGI in test [1] was 26.7 µM; in [2] it was 44.6 µM; in test [3], 41.8 µM; in test [4] it was 41.5 µM; in [5], > 100 µM; in test [6], > 100 µM. The TGI amounted to 29.3 µM in [7], 34.6 µM in test [8], 29.2 µM in [9] and 32.9 µM in test [10].

The values above are taken from PubChem BioAssay (NCI).
